Legend:
[1] = molecular target: T1, uncoupling protein 1 (UCP1) (Mus musculus, UniProt P12242); test: whole-IMM patch clamp, WT vs UCP1-/-; format: cell-based
T1 sequence (P12242 1-307): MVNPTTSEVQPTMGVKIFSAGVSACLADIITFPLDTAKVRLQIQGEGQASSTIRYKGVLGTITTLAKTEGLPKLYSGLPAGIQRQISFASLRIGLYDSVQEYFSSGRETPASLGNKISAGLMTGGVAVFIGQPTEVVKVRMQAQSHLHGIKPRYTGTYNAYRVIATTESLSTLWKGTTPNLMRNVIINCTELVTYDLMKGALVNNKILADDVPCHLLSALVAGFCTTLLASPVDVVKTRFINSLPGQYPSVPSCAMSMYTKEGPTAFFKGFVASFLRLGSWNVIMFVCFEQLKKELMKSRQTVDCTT

[2] = molecular target: T1, uncoupling protein 1 (UCP1); test: whole-IMM patch clamp, dose-dependent inhibition of IH induced by […] DNP; format: biochemical
ADP/ATP carrier AAC1 = molecular target: T2, ADP/ATP carrier AAC1 (Mus musculus, UniProt P48962); test: whole-IMM patch clamp; format: cell-based
T2 sequence (P48962 2-298): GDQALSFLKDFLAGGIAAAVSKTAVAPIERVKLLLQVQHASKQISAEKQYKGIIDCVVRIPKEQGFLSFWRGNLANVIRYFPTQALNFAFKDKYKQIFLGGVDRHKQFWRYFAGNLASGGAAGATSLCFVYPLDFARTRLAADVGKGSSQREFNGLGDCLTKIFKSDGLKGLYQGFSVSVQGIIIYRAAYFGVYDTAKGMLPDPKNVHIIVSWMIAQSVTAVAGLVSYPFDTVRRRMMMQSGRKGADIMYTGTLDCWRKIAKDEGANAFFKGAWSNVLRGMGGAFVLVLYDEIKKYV

O=[N+]([O-])c1ccc(O)c([N+](=O)[O-])c1 [DNP, 2,4-dinitrophenol]
whole-IMM patch clamp, WT vs UCP1-/-; GDP block; competition with ATP [1]: Thus, UCP1 is crucial for DNP-induced IH in brown fat mitochondria.

Nc1ncnc2c1ncn2[C@@H]1O[C@H](COP(=O)(O)OP(=O)(O)OP(=O)(O)O)[C@@H](O)[C@H]1O [ATP]
IC50 [2]: ~14 µM

N#CC(C#N)=NNc1ccc(OC(F)(F)F)cc1 [FCCP]
whole-IMM patch clamp (25-250 nM), WT vs AAC1-/-; CATR block (ADP/ATP carrier AAC1): DNP and FCCP activate IH through AAC.
